# From patent US20110262566A1, “NOVEL USEFUL THERAPEUTIC AGENT FOR LOWER URINARY TRACT SYMPTOM” (DAINIPPON SUMITOMO PHARMA CO., LTD., priority 2008, published 2011)
# Tests used:
# small DRG neurons [1] = assay: Test Example 2: combination effect with α1-adrenergic receptor blocker (high-K-induced rise in membrane potential, DiBAC4(3) fluorescence); format: cell-based, rat; conditions: control 72±3%
# Method: This test was performed using male SD strain rats at 6 to 7 weeks of age after birth. The animals were reared in metal cages, and allowed to take food (CE-2; CLEA Japan) and water ad libitum. Rat spinal cord was dissected under halothane anesthesia. DRG tissue was removed from the spinal cord under a stereoscopic microscope, and recovered into an ice-cooled culture dish containing DMEM. The DRG tissue was digested using 0.25% trypsin and 0.38% collagenase, and DRG neurons were isolated. The DRG neurons were seeded to a cover glass coated with Poly-L-Lysine and laminin, and cultured. On the day after the start of cultivation, the DRG neurons were loaded with 5 μM DiBAC4(3) in the presence of 5% gaseous carbon dioxide at 37° C. for 1 hour or more. Thereafter, the neurons were transferred to an assay buffer solution (pH 7.3; 10 mM HEPES, 145 mM NaCl, 5 mM KCl, 2 mM CaCl2, 1 mM MgCl2, mM Glucose), and the fluorescence intensity of each DRG neuron was measured using the image analytical system AQUACOSMOS (Hamamatsu Photonics). When small DRG neurons were selected and stimulated with 60 mM high-concentration K solution (pH 7.3; 10 mM HEPES, 90 mM NaCl, 60 mM KCl, 2 mM CaCl2, 1 mM MgCl2, 10 mM Glucose), a rise in membrane potential was observed. When the 60 mM high-concentration K solution was replaced with the assay buffer solution, the transiently-elevated membrane potential fell rapidly. […]
# small DRG neurons [2] = assay: Test Example 1: action of the compound A on C-fiber activation (high-K-induced rise in membrane potential, DiBAC4(3) fluorescence); format: cell-based, rat; conditions: compound A 3 μM pretreated between 1st and 2nd 60 mM K stimulations; control 72±3%
# Method: This test was performed using male SD strain rats at 6 to 7 weeks of age after birth. The animals were reared in metal cages, and allowed to take food (CE-2; CLEA Japan) and water ad libitum.
# Rat spinal cord was dissected under halothane anesthesia. DRG tissue was removed from the spinal cord under a stereoscopic microscope, and recovered into an ice-cooled culture dish containing DMEM. The DRG tissue was digested using 0.25% trypsin and 0.38% collagenase, and DRG neurons were isolated. The DRG neurons were seeded to a cover glass coated with Poly-L-Lysine and laminin, and cultured.
# On the day after the start of cultivation, the DRG neurons were loaded with 5 μM DiBAC4(3) in the presence of 5% gaseous carbon dioxide at 37° C. for 1 hour or more. Thereafter, the neurons were transferred to an assay buffer solution (pH 7.3; 10 mM HEPES, 145 mM NaCl, 5 mM KCl, 2 mM CaCl2, 1 mM MgCl2, mM Glucose), and the fluorescence intensity of each DRG neuron was measured using the image analytical system AQUACOSMOS (Hamamatsu Photonics).
# When small DRG neurons were selected and stimulated with 60 mM high-concentration K solution (pH 7.3; 10 mM HEPES, 90 mM NaCl, 60 mM KCl, 2 mM CaCl2, 1 mM MgCl2, 10 mM Glucose), a rise in membrane potential was observed. When the 60 mM high-concentration K solution was replaced with the assay buffer solution, the transiently-elevated membrane potential fell rapidly. […]
smiles,measurement,setting,value
COc1ccccc1N1CCN(CC(O)COc2cccc3ccccc23)CC1 (stereo not drawn) [naftopidil],"rise in membrane potential (ΔF/F), second rise relative to first rise as 100%","small DRG neurons [1]; naftopidil 30 μM alone, treated between 1st and 2nd 60 mM K stimulations",40±5%
"O=C1Nc2ccccc2[C@H](c2ccccc2)N1C1CCN(Cc2cccc(OC(F)(F)F)c2)CC1 [compound A, (+)-3-{1-[3-(trifluoromethoxy)benzyl]piperidin-4-yl}-4-phenyl-3,4-dihydro-2(1H)-quinazolinone]","rise in membrane potential (ΔF/F), second rise relative to first rise as 100%",small DRG neurons [2],66±6%
CCOc1ccccc1OCCN[C@H](C)Cc1ccc(OC)c(S(N)(=O)=O)c1 [tamsulosin],change in membrane potential,"small DRG neurons [1]; tamsulosin 0.1 μM alone, pretreatment, 60 mM K stimulation",nearly the same extent as with the control
